Among the data in patent publication US11655225B2, “Antimycobacterial heterocyclic amides” (Crestone, Inc., priority 2018, dated 2023) are MIC values, retold here.

Structures are written as SMILES. In brackets after ≈: the same amount, converted by molar mass.

Broadly, the MIC is the lowest concentration found to suppress growth. Lower therefore signals a more susceptible organism.

The assay has as its system M. abscessus. Kind of assay: MIC determination, CLSI M24-A. Type of assay: cell-based. The conditions noted are these: Mycobacteroides abscessus, CLSI M24-A.
For `CC12CC3CC(C)(C1)CC(C(=O)Nc1nc4ccccc4[nH]1)(C3)C2` [Example 146, N-(1H-1,3-benzodiazol-2-yl)-3,5-dimethyladamantane-1-carboxamide], the MIC fell in the range of 2 to 32 µg/mL (≈ 6.18 to 98.9 µM).

Consider `CC12CC3CC(C)(C1)CC(C(=O)Nc1nc4ccccc4o1)(C3)C2` [Example 147, N-(1,3-benzoxazol-2-yl)-3,5-dimethyladamantane-1-carboxamide], for which the MIC lay in the range of 2 to 32 µg/mL (≈ 6.16 to 98.6 µM).

In turn, `O=C(Nc1nc2ccc(C(F)(F)F)cc2s1)C1CCCC2(CC2)C1` (stereo not drawn) [Example 148, N-[6-(trifluoromethyl)-1,3-benzothiazol-2-yl]spiro[2.5]octane-5-carboxamide] gave an MIC of 2 to 32 µg/mL (≈ 5.64 to 90.3 µM).

`CC1CCCC(NC(=O)Nc2nc3ccc(C(F)(F)F)cc3s2)C1` (stereo not drawn) [Example 149, 1-(3-methylcyclohexyl)-3-[6-(trifluoromethyl)-1,3-benzothiazol-2-yl]urea]: the MIC was 2 to 32 µg/mL (≈ 5.6 to 89.5 µM).

The molecule `CC12CC3CC(C)(C1)CC(C(=O)Nc1nc4ccc(C(F)(F)F)cc4o1)(C3)C2` [Example 150, 3,5-dimethyl-N-[6-(trifluoromethyl)-1,3-benzoxazol-2-yl]adamantane-1-carboxamide] had an MIC of 2 to 32 µg/mL (≈ 5.1 to 81.5 µM).

`CC1CC(C(=O)Nc2nc3cc(Cl)c(Cl)cc3[nH]2)CC(C)(C)C1` (stereo not drawn) [Example 151, N-(5,6-dichloro-1H-1,3-benzodiazol-2-yl)-3,3,5-trimethylcyclohexane-1-carboxamide] yielded a minimum inhibitory concentration (MIC) of 2 to 32 µg/mL (≈ 5.65 to 90.3 µM).

On to `CC1CCC(C(=O)Nc2nc3ccc(C(F)(F)F)cc3s2)C1` (stereo not drawn) [Example 152, 3-methyl-N-[6-(trifluoromethyl)-1,3-benzothiazol-2-yl]cyclopentane-1-carboxamide], for which the MIC lay within 2 to 32 µg/mL (≈ 6.09 to 97.5 µM).

Molecule `CC1(C(=O)Nc2nc3cc(Br)ccc3s2)CCCC1` [Example 153, N-(5-bromo-1,3-benzothiazol-2-yl)-1-methylcyclopentane-1-carboxamide] returned an MIC of 2 to 32 µg/mL (≈ 5.9 to 94.3 µM).

For the molecule `CC1(C(=O)Nc2nc3c(F)c(F)c(F)cc3s2)CCCCC1` [Example 154, 1-methyl-N-(4,5,6-trifluoro-1,3-benzothiazol-2-yl)cyclohexane-1-carboxamide], the MIC fell in the range of 2 to 32 µg/mL (≈ 6.09 to 97.5 µM).

As for `O=C(Nc1nc2ccccc2o1)C12CC3CC(CC(C3)C1)C2` [Example 155, N-(1,3-benzoxazol-2-yl)adamantane-1-carboxamide], the minimum inhibitory concentration (MIC) was 2 to 32 µg/mL (≈ 6.75 to 108 µM).

Molecule `O=C(Nc1nc2ccc(OC(F)F)cc2s1)C1CCCCC1` [Example 156, N-[6-(difluoromethoxy)-1,3-benzothiazol-2-yl]cyclohexanecarboxamide] gave an MIC of 2 to 32 µg/mL (≈ 6.13 to 98 µM).

`O=C(Nc1nc2c(F)cc(F)cc2s1)C1CCCCC1` [Example 157, N-(4,6-difluoro-1,3-benzothiazol-2-yl)cyclohexanecarboxamide]: the MIC was 2 to 32 µg/mL (≈ 6.75 to 108 µM).

Regarding `CC1CC(C(=O)Nc2nc3ccc(Br)cc3o2)CC(C)(C)C1` (stereo not drawn) [Example 158, N-(6-bromo-1,3-benzoxazol-2-yl)-3,3,5-trimethylcyclohexane-1-carboxamide], the MIC was in the range of 2 to 32 µg/mL (≈ 5.48 to 87.6 µM).

On to `O=C(Nc1nc2ccccc2o1)C1CC2CCCC(C2)C1` (stereo not drawn) [Example 159, N-(1,3-benzoxazol-2-yl)bicyclo[3.3.1]nonane-3-carboxamide], for which the MIC lay in the range of 2 to 32 µg/mL (≈ 7.03 to 113 µM).

`O=C(Nc1cc2ccccc2s1)C1CCCCCC1` [Example 160, N-(1-benzothiophen-2-yl)cycloheptanecarboxamide] yielded an MIC of 2 to 32 µg/mL (≈ 7.32 to 117 µM).

Regarding `Cc1cc(C)c2oc(NC(=O)C34CC5CC(C)(CC(C)(C5)C3)C4)nc2c1` [Example 161, N-(5,7-dimethyl-1,3-benzoxazol-2-yl)-3,5-dimethyladamantane-1-carboxamide], the minimum inhibitory concentration (MIC) was in the range of 2 to 32 µg/mL (≈ 5.67 to 90.8 µM).

For `COc1ccc2nc(NC(=O)C3CC(C)CC(C)(C)C3)oc2c1` (stereo not drawn) [Example 162, N-(6-methoxy-1,3-benzoxazol-2-yl)-3,3,5-trimethylcyclohexane-1-carboxamide], the MIC lay in the range of 2 to 32 µg/mL (≈ 6.32 to 101 µM).

In turn, `CC1CC(C(=O)Nc2nc3ccc(C(F)(F)F)cc3o2)CC(C)(C)C1` (stereo not drawn) [Example 163, 3,3,5-trimethyl-N-[6-(trifluoromethyl)-1,3-benzoxazol-2-yl]cyclohexane-1-carboxamide] gave an MIC of 2 to 32 µg/mL (≈ 5.64 to 90.3 µM).

Turning to `CC12CC3CC(C)(C1)CC(C(=O)Nc1nc4cc(Cl)c(Cl)cc4[nH]1)(C3)C2` [Example 164, N-(5,6-dichloro-1H-1,3-benzodiazol-2-yl)-3,5-dimethyladamantane-1-carboxamide], the minimal inhibitory concentration (MIC) lay within 2 to 32 µg/mL (≈ 5.1 to 81.6 µM).

Take `CC1CC(C(=O)Nc2nc3ccccc3o2)CC(C)(C)C1` (stereo not drawn) [Example 165, N-(1,3-benzoxazol-2-yl)-3,3,5-trimethylcyclohexane-1-carboxamide]: the MIC was in the range of 2 to 32 µg/mL (≈ 6.98 to 112 µM).

Turning to `CC1CCCCC1C(=O)Nc1nc2ccccc2s1` (stereo not drawn) [Example 166, N-(1,3-benzothiazol-2-yl)-2-methylcyclohexane-1-carboxamide], the MIC lay within 2 to 32 µg/mL (≈ 7.29 to 117 µM).

`CC1CCCC(C(=O)Nc2nc3c(Cl)cccc3s2)C1` (stereo not drawn) [Example 167, N-(4-chloro-1,3-benzothiazol-2-yl)-3-methylcyclohexane-1-carboxamide] had an MIC of 2 to 32 µg/mL (≈ 6.48 to 104 µM).

`CC1CCCC(C(=O)Nc2nc3ccc(Cl)cc3s2)C1` (stereo not drawn) [Example 168, N-(6-chloro-1,3-benzothiazol-2-yl)-3-methylcyclohexane-1-carboxamide]: the MIC lay in the range of 2 to 32 µg/mL (≈ 6.48 to 104 µM).

As for `CC1CCCC(C(=O)Nc2nc3c(F)cc(F)cc3s2)C1` (stereo not drawn) [Example 169, N-(4,6-difluoro-1,3-benzothiazol-2-yl)-3-methylcyclohexane-1-carboxamide], the MIC lay in the range of 2 to 32 µg/mL (≈ 6.44 to 103 µM).

In turn, `CC1CCCC(C(=O)Nc2nc3ccc(F)cc3s2)C1` (stereo not drawn) [Example 170, N-(6-fluoro-1,3-benzothiazol-2-yl)-3-methylcyclohexane-1-carboxamide] had an MIC of 2 to 32 µg/mL (≈ 6.84 to 109 µM).

For `CC1(C(=O)Nc2nc3c(F)cc(F)cc3s2)CCCCC1` [Example 171, N-(4,6-difluoro-1,3-benzothiazol-2-yl)-1-methylcyclohexane-1-carboxamide], the MIC lay within 2 to 32 µg/mL (≈ 6.44 to 103 µM).

`CC1(C(=O)Nc2nc3ccc(OC(F)F)cc3s2)CCCCC1` [Example 172, N-[6-(difluoromethoxy)-1,3-benzothiazol-2-yl]-1-methylcyclohexane-1-carboxamide] showed an MIC of 2 to 32 µg/mL (≈ 5.88 to 94 µM).

On to `CC(C)(C)C(=O)Nc1nc2ccc(OC(F)(F)F)cc2s1` [Example 173, 2,2-dimethyl-N-[6-(trifluoromethoxy)-1,3-benzothiazol-2-yl]propanamide], for which the MIC lay within 2 to 32 µg/mL (≈ 6.28 to 101 µM).

Turning to `CC1CC(C(=O)Nc2nc3cccc(O)c3s2)CC(C)(C)C1` (stereo not drawn) [Example 174, N-(7-hydroxy-1,3-benzothiazol-2-yl)-3,3,5-trimethylcyclohexane-1-carboxamide], the minimum inhibitory concentration (MIC) was 2 to 32 µg/mL (≈ 6.28 to 100 µM).

Molecule `CC1CC(C(=O)Nc2nc3cc(F)c(F)cc3o2)CC(C)(C)C1` (stereo not drawn) [Example 175, N-(5,6-difluoro-1,3-benzoxazol-2-yl)-3,3,5-trimethylcyclohexane-1-carboxamide] had an MIC of 2 to 32 µg/mL (≈ 6.2 to 99.3 µM).

Consider `O=C(Nc1cc2ccccc2s1)C1CCCCC1` [Example 176, N-(1-benzothiophen-2-yl)cyclohexanecarboxamide], for which the MIC lay in the range of 2 to 32 µg/mL (≈ 7.71 to 123 µM).

The molecule `CC1CC(C(=O)Nc2nc3ccc(SC(F)(F)F)cc3s2)CC(C)(C)C1` (stereo not drawn) [Example 177, 3,3,5-trimethyl-N-{6-[(trifluoromethyl)sulfanyl]-1,3-benzothiazol-2-yl}cyclohexane-1-carboxamide] yielded an MIC of 2 to 32 µg/mL (≈ 4.97 to 79.5 µM).

In turn, `CC1CC(C(=O)Nc2nc3ccc(F)cc3[nH]2)CC(C)(C)C1` (stereo not drawn) [Example 178, N-(6-fluoro-1H-1,3-benzodiazol-2-yl)-3,3,5-trimethylcyclohexane-1-carboxamide] returned an MIC of 2 to 32 µg/mL (≈ 6.59 to 105 µM).

In turn, `CC1CC(C(=O)Nc2nc3c(Cl)cccc3s2)CC(C)(C)C1` (stereo not drawn) [Example 179, N-(4-chloro-1,3-benzothiazol-2-yl)-3,3,5-trimethylcyclohexane-1-carboxamide] displayed an MIC of 2 to 32 µg/mL (≈ 5.94 to 95 µM).

`Cc1cccc2sc(NC(=O)C3CCCC(C)C3)nc12` (stereo not drawn) [Example 180, 3-methyl-N-(4-methyl-1,3-benzothiazol-2-yl)cyclohexane-1-carboxamide]: the MIC is 2 to 32 µg/mL (≈ 6.93 to 111 µM).

In turn, `COc1ccc2nc(NC(=O)C3CCCC(C)C3)sc2c1` (stereo not drawn) [Example 181, N-(6-methoxy-1,3-benzothiazol-2-yl)-3-methylcyclohexane-1-carboxamide] had an MIC of 2 to 32 µg/mL (≈ 6.57 to 105 µM).

`CC1CCCC(C(=O)Nc2nc3ccccc3s2)C1` (stereo not drawn) [Example 182, N-(1,3-benzothiazol-2-yl)-3-methylcyclohexane-1-carboxamide] came in with an MIC of 2 to 32 µg/mL (≈ 7.29 to 117 µM).

The molecule `Cc1cccc2sc(NC(=O)C3CC4CCC3C4)nc12` (stereo not drawn) [Example 183, N-(4-methyl-1,3-benzothiazol-2-yl)bicyclo[2.2.1]heptane-2-carboxamide] came in with an MIC of 2 to 32 µg/mL (≈ 6.98 to 112 µM).

Turning to `CC12CCCC(C(=O)Nc3nc4cc(Cl)cc(Cl)c4o3)(CCC1)C2` [Example 184, N-(5,7-dichloro-1,3-benzoxazol-2-yl)-5-methylbicyclo[3.3.1]nonane-1-carboxamide], the MIC lay within 2 to 32 µg/mL (≈ 5.45 to 87.1 µM).

Turning to `CC1(C(=O)Nc2nc3ccc(OC(F)(F)F)cc3s2)CC2CCC1O2` (stereo not drawn) [Example 185, 2-methyl-N-[6-(trifluoromethoxy)-1,3-benzothiazol-2-yl]-7-oxabicyclo[2.2.1]heptane-2-carboxamide], the MIC was in the range of 2 to 32 µg/mL (≈ 5.37 to 85.9 µM).

`CC1CC(C(=O)Nc2nc3ccc(N(C)C)cc3s2)CC(C)(C)C1` (stereo not drawn) [Example 186, N-[6-(dimethylamino)-1,3-benzothiazol-2-yl]-3,3,5-trimethylcyclohexane-1-carboxamide] registered a minimal inhibitory concentration (MIC) of 2 to 32 µg/mL (≈ 5.79 to 92.6 µM).

For `O=C(Nc1nc2ccccc2o1)C1CCCCCCC1` [Example 187, N-(1,3-benzoxazol-2-yl)cyclooctanecarboxamide], the MIC was in the range of 2 to 32 µg/mL (≈ 7.34 to 117 µM).

For the molecule `O=C(Nc1nc2ccc(OC(F)(F)F)cc2s1)C1CCCCC1` [Example 188, N-[6-(trifluoromethoxy)-1,3-benzothiazol-2-yl]cyclohexanecarboxamide], the MIC was in the range of 2 to 32 µg/mL (≈ 5.81 to 92.9 µM).

As to `CC1CC(C(=O)Nc2nc3c(F)cc(F)cc3o2)CC(C)(C)C1` (stereo not drawn) [Example 189, N-(4,6-difluoro-1,3-benzoxazol-2-yl)-3,3,5-trimethylcyclohexane-1-carboxamide], the MIC lay within 2 to 32 µg/mL (≈ 6.2 to 99.3 µM).

`CC1CC(C(=O)Nc2nc3cc(Br)ccc3s2)CC(C)(C)C1` (stereo not drawn) [Example 190, N-(5-bromo-1,3-benzothiazol-2-yl)-3,3,5-trimethylcyclohexane-1-carboxamide] had an MIC of 2 to 32 µg/mL (≈ 5.24 to 83.9 µM).
